# Patent US20260325533A1, “CDK INHIBITOR COMPOUNDS” (ALEKSIA THERAPEUTICS, INC., priority 2023, published 2026)
# Like-named read-outs stand apart in the source and are kept apart here.
# Experiments:
# Format in all cases: biochemical
# CDK2/CCNE1 = CDK2/CCNE1 (Homo sapiens, UniProt P24941); test: CDK2 homogeneous time-resolved fluorescence (HTRF) kinase assay; conditions: CDK2/CCNE
# In short: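 Compounds were titrated 11-point, half-log from typically 10 μM against 3 nM CDK2/cyclin E1 at 1 mM ATP, with a 20 min enzyme preincubation. Phosphorylation of 50 nM ULight-4E-BP1 peptide over 60 min at 23 °C was detected by europium anti-phospho antibody TR-FRET.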
# CDK4/CCND3 = CDK4/CCND3 (Homo sapiens, UniProt P11802); test: CDK4 homogeneous time-resolved fluorescence (HTRF) kinase assay; conditions: CDK4/CCND; x = IC50 >250 nM; read-out: CDK4/CCND IC50 (>250 nM column)
# CDK4/CCND3, sequence (P11802 whole entry): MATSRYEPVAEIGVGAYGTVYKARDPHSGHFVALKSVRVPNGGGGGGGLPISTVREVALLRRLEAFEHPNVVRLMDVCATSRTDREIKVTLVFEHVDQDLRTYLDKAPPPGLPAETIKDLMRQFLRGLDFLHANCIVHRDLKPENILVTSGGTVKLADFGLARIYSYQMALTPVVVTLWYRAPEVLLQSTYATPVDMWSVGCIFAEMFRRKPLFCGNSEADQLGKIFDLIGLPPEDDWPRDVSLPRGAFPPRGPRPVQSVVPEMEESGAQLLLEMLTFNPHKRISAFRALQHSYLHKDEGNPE
# CDK4/CCND3, sequence (P30281 whole entry partner): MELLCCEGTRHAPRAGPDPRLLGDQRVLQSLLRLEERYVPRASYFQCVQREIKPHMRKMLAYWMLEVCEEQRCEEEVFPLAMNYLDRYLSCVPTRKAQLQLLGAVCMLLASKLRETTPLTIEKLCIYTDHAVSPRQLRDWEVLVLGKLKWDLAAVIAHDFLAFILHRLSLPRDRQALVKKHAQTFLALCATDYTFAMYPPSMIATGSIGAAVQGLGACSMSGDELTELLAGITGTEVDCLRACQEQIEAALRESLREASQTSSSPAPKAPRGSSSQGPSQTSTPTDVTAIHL
# In short: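 Steps: compound plus 1.5 nM CDK4/CCND3, 20 min, 23 °C; add 1 mM ATP and 50 nM ULight-4E-BP1 (Thr37/46) peptide, 60 min; stop with 10 mM EDTA; add 2 nM Eu anti-phospho antibody, 60 min; read 665 nm. IC50 from 11-point half-log series starting 10 μM.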
# CDK6/CCND1 = CDK6/CCND1 (Homo sapiens, UniProt Q00534); test: CDK6 homogeneous time-resolved fluorescence (HTRF) kinase assay; conditions: CDK6/CCND
# CDK6/CCND1, sequence (Q00534 whole entry): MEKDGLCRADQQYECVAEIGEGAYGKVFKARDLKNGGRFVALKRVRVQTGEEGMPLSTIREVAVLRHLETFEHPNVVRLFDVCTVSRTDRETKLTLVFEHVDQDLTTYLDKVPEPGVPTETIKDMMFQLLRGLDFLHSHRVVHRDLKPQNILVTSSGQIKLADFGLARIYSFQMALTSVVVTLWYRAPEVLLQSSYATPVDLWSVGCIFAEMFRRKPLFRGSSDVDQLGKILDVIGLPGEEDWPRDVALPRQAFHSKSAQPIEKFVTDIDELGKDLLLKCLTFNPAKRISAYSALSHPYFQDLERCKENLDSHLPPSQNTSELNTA
# CDK6/CCND1, sequence (P24385 whole entry partner): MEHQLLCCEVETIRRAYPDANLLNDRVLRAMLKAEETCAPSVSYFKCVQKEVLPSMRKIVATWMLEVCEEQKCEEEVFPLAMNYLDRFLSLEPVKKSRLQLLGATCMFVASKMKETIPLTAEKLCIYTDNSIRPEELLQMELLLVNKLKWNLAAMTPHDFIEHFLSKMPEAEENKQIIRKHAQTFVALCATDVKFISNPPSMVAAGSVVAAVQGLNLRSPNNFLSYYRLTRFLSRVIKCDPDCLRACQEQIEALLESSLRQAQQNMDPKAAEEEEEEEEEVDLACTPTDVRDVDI
# In short: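 Enzyme pre-incubated 20 min at 23 °C with compound, then reacted 60 min at 23 °C with 1 mM ATP and 50 nM ULight-4E-BP1 (Thr37/46) peptide; 1 nM enzyme, 1% DMSO. EDTA-stopped, Eu-anti-phospho antibody TR-FRET read (665 nm or 665/615 ratio); 11-point half-log titration from 10 μM gave IC50.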
# CDK1/CCNB1 = CDK1/CCNB1 (Homo sapiens, UniProt P06493); test: CDK1 homogeneous time-resolved fluorescence (HTRF) kinase assay; conditions: CDK1/CCNB; x = IC50 >250 nM; read-out: CDK1/CCNB IC50 (>250 nM column)
# CDK1/CCNB1, sequence (P06493 whole entry): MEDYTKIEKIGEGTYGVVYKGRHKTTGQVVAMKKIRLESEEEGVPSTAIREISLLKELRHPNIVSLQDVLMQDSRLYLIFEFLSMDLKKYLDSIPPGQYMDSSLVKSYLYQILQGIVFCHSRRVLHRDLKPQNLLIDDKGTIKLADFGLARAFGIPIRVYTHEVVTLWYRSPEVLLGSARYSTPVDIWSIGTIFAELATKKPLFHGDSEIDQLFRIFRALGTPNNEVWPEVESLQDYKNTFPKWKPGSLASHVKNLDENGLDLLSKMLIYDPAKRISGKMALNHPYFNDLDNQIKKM
# CDK1/CCNB1, sequence (P14635 whole entry partner): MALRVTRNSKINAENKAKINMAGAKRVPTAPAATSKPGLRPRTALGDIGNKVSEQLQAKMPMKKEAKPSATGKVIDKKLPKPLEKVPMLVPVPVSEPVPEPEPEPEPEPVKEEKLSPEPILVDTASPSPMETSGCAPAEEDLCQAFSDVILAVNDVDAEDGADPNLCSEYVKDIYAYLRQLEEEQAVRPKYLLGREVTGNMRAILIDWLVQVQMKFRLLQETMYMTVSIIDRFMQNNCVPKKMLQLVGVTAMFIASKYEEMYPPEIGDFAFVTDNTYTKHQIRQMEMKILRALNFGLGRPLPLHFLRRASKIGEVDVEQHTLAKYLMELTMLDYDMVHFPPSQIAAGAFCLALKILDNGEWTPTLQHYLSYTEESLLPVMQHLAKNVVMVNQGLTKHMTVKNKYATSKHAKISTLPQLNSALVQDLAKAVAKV
# In short: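 Read-out: TR-FRET (Eu anti-phospho-4E-BP1 Thr37/46 antibody, 2 nM; 665 nm or 665/615 ratio) after 60 min phosphorylation of 50 nM ULight-peptide by 0.5 nM CDK1/CCNB1 at 1 mM ATP, 23 °C. Compound preincubated 20 min with enzyme; 1% DMSO.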
# [1] = x = IC50 25-250 nM, read-out: CDK2/CCNE IC50 (25-250 nM)
# [2] = x = IC50 >250 nM, read-out: CDK6/CCND IC50 (>250 nM column)
# [3] = x = IC50 <25 nM, read-out: CDK2/CCNE IC50 (<25 nM)
# [4] = x = IC50 >250 nM, read-out: CDK2/CCNE IC50 (>250 nM column)
# [5] = x = IC50 <25 nM, read-out: CDK6/CCND IC50 (<25 nM)
SMILES,IC50 (CDK2/CCNE1; [1]),IC50 (CDK4/CCND3),IC50 (CDK6/CCND1; [2]),IC50 (CDK1/CCNB1),IC50 (CDK2/CCNE1; [3]),IC50 (CDK2/CCNE1; [4]),IC50 (CDK6/CCND1; [5])
"CS(=O)(=O)c1ccc(Nc2cc3c(C#Cc4ccc(Cl)c(F)c4N)nccc3cn2)cc1 [Ex 530, 5-((2-amino-4-chloro-3-fluorophenyl)ethynyl)-N-(4-(methylsulfonyl)phenyl)-2,6-naphthyridin-3-amine]",25 to 250 nM,> 250 nM,> 250 nM,> 250 nM,,,
"CS(=O)(=O)c1ccc(Nc2cc3c(C#Cc4n[nH]c5c4CCC5)nccc3cn2)cc1 [Ex 531, N-(4-(methylsulfonyl)phenyl)-5-((1,4,5,6-tetrahydrocyclopenta[c]pyrazol-3-yl)ethynyl)-2,6-naphthyridin-3-amine]",25 to 250 nM,> 250 nM,> 250 nM,> 250 nM,,,
"CS(=O)(=O)c1ccc(Nc2cc3c(C#Cc4ccc5c(C#N)c[nH]c5c4)nccc3cn2)cc1 [Ex 532, 6-((7-((4-(methylsulfonyl)phenyl)amino)-2,6-naphthyridin-1-yl)ethynyl)-1H-indole-3-carbonitrile]",25 to 250 nM,> 250 nM,> 250 nM,> 250 nM,,,
"CS(=O)(=O)c1ccc(Nc2cc3c(C#Cc4cc(CO)cnc4N)nccc3cn2)cc1 [Ex 533, (6-amino-5-((7-((4-(methylsulfonyl)phenyl)amino)-2,6-naphthyridin-1-yl)ethynyl)pyridin-3-yl)methanol]",25 to 250 nM,> 250 nM,> 250 nM,> 250 nM,,,
"CS(=O)(=O)c1ccc(Nc2cc3c(C#Cc4cnc(N)c(OC(F)F)c4)nccc3cn2)cc1 [Ex 534, 5-((6-amino-5-(difluoromethoxy)pyridin-3-yl)ethynyl)-N-(4-(methylsulfonyl)phenyl)-2,6-naphthyridin-3-amine]",25 to 250 nM,> 250 nM,> 250 nM,> 250 nM,,,
"CS(=O)(=O)c1ccc(Nc2cc3c(C#Cc4cccc5ncnn45)nccc3cn2)cc1 [Ex 535, 5-([1,2,4]triazolo[1,5-a]pyridin-5-ylethynyl)-N-(4-(methylsulfonyl)phenyl)-2,6-naphthyridin-3-amine]",25 to 250 nM,> 250 nM,> 250 nM,> 250 nM,,,
"CS(=O)(=O)c1ccc(Nc2cc3c(C#Cc4cnc(C#N)c(N)c4)nccc3cn2)cc1 [Ex 536, 3-amino-5-((7-((4-(methylsulfonyl)phenyl)amino)-2,6-naphthyridin-1-yl)ethynyl)picolinonitrile]",25 to 250 nM,> 250 nM,> 250 nM,> 250 nM,,,
"CS(=O)(=O)c1ccc(Nc2cc3c(C#Cc4cnncc4N)nccc3cn2)cc1 [Ex 537, 5-((5-aminopyridazin-4-yl)ethynyl)-N-(4-(methylsulfonyl)phenyl)-2,6-naphthyridin-3-amine]",,> 250 nM,> 250 nM,> 250 nM,< 25 nM,,
"CN(C)c1ncc(C#Cc2nccc3cnc(Nc4ccc(S(C)(=O)=O)cc4)cc23)cn1 [Ex 538, 5-((2-(dimethylamino)pyrimidin-5-yl)ethynyl)-N-(4-(methylsulfonyl)phenyl)-2,6-naphthyridin-3-amine]",25 to 250 nM,> 250 nM,> 250 nM,> 250 nM,,,
"CS(=O)(=O)c1ccc(Nc2cc3c(C#Cc4ccc(OC(F)F)nc4)nccc3cn2)cc1 [Ex 539, 5-((6-(difluoromethoxy)pyridin-3-yl)ethynyl)-N-(4-(methylsulfonyl)phenyl)-2,6-naphthyridin-3-amine]",25 to 250 nM,> 250 nM,> 250 nM,> 250 nM,,,
"Cc1nc(C#Cc2nccc3cnc(Nc4ccc(S(C)(=O)=O)cc4)cc23)sc1C [Ex 540, 5-((4,5-dimethylthiazol-2-yl)ethynyl)-N-(4-(methylsulfonyl)phenyl)-2,6-naphthyridin-3-amine]",,> 250 nM,> 250 nM,> 250 nM,,> 250 nM,

# Now from value to molecule:
IC50 (CDK2/CCNE1; [1]),IC50 (CDK4/CCND3),IC50 (CDK6/CCND1; [2]),IC50 (CDK1/CCNB1),IC50 (CDK2/CCNE1; [3]),IC50 (CDK2/CCNE1; [4]),IC50 (CDK6/CCND1; [5]),SMILES
25 to 250 nM,> 250 nM,> 250 nM,> 250 nM,,,,"Cc1nc(N)nc(C)c1C#Cc1nccc2cnc(Nc3ccc(S(C)(=O)=O)cc3)cc12 [Ex 541, 5-((2-amino-4,6-dimethylpyrimidin-5-yl)ethynyl)-N-(4-(methylsulfonyl)phenyl)-2,6-naphthyridin-3-amine]"
,> 250 nM,> 250 nM,> 250 nM,< 25 nM,,,"CC(C)(O)c1nc2ccc(C#Cc3nccc4cnc(Nc5ccc(S(C)(=O)=O)cc5)cc34)cc2[nH]1 [Ex 542, 2-(6-((7-((4-(methylsulfonyl)phenyl)amino)-2,6-naphthyridin-1-yl)ethynyl)-1H-benzo[d]imidazol-2-yl)propan-2-ol]"
,> 250 nM,> 250 nM,> 250 nM,,> 250 nM,,"CC(C)(O)Cn1cnc2ccc(C#Cc3nccc4cnc(Nc5ccc(S(C)(=O)=O)cc5)cc34)cc21 [Ex 543, 2-methyl-1-(6-((7-((4-(methylsulfonyl)phenyl)amino)-2,6-naphthyridin-1-yl)ethynyl)-1H-benzo[d]imidazol-1-yl)propan-2-ol]"
,> 250 nM,> 250 nM,> 250 nM,,> 250 nM,,"CNc1ccncc1C#Cc1nccc2cnc(Nc3ccc(S(C)(=O)=O)cc3)cc12 [Ex 547, 5-((4-(methylamino)pyridin-3-yl)ethynyl)-N-(4-(methylsulfonyl)phenyl)-2,6-naphthyridin-3-amine]"
25 to 250 nM,> 250 nM,> 250 nM,> 250 nM,,,,"CS(=O)(=O)c1ccc(Nc2cc3c(C#Cc4ccnc5[nH]ncc45)nccc3cn2)cc1 [Ex 548, 5-((1H-pyrazolo[3,4-b]pyridin-4-yl)ethynyl)-N-(4-(methylsulfonyl)phenyl)-2,6-naphthyridin-3-amine]"
25 to 250 nM,> 250 nM,> 250 nM,> 250 nM,,,,"CS(=O)(=O)c1ccc(Nc2cc3c(C#Cc4cc(F)c(N)c(F)c4)nccc3cn2)cc1 [Ex 549, 5-((4-amino-3,5-difluorophenyl)ethynyl)-N-(4-(methylsulfonyl)phenyl)-2,6-naphthyridin-3-amine]"
25 to 250 nM,> 250 nM,> 250 nM,> 250 nM,,,,"CS(=O)(=O)c1ccc(Nc2cc3c(C#Cc4cnn(CC(F)(F)F)c4)nccc3cn2)cc1 [Ex 550, N-(4-(methylsulfonyl)phenyl)-5-((1-(2,2,2-trifluoroethyl)-1H-pyrazol-4-yl)ethynyl)-2,6-naphthyridin-3-amine]"
25 to 250 nM,> 250 nM,,> 250 nM,,,< 25 nM,"CS(=O)(=O)c1ccc(Nc2cc3c(C#Cc4n[nH]c5cccc(F)c45)nccc3cn2)cc1 [Ex 551, 5-((4-fluoro-1H-indazol-3-yl)ethynyl)-N-(4-(methylsulfonyl)phenyl)-2,6-naphthyridin-3-amine]"
25 to 250 nM,> 250 nM,,> 250 nM,,,< 25 nM,"CS(=O)(=O)c1ccc(Nc2cc3c(C#Cc4ncc(N)nc4Cl)nccc3cn2)cc1 [Ex 552, 5-((5-amino-3-chloropyrazin-2-yl)ethynyl)-N-(4-(methylsulfonyl)phenyl)-2,6-naphthyridin-3-amine]"
25 to 250 nM,> 250 nM,,> 250 nM,,,< 25 nM,"Cc1ccc(C#Cc2nccc3cnc(Nc4ccc(S(C)(=O)=O)cc4)cc23)c(C#N)n1 [Ex 553, 6-methyl-3-((7-((4-(methylsulfonyl)phenyl)amino)-2,6-naphthyridin-1-yl)ethynyl)picolinonitrile]"
25 to 250 nM,> 250 nM,> 250 nM,> 250 nM,,,,"CS(=O)(=O)c1ccc(Nc2cc3c(C#Cc4ccc(C#N)cc4F)nccc3cn2)cc1 [Ex 554, 3-fluoro-4-((7-((4-(methylsulfonyl)phenyl)amino)-2,6-naphthyridin-1-yl)ethynyl)benzonitrile]"
25 to 250 nM,> 250 nM,> 250 nM,> 250 nM,,,,"Cc1cnc(C#Cc2nccc3cnc(Nc4ccc(S(C)(=O)=O)cc4)cc23)c(C)n1 [Ex 555, 5-((3,5-dimethylpyrazin-2-yl)ethynyl)-N-(4-(methylsulfonyl)phenyl)-2,6-naphthyridin-3-amine]"
25 to 250 nM,> 250 nM,> 250 nM,> 250 nM,,,,"CS(=O)(=O)c1ccc(Nc2cc3c(C#Cc4cc(F)cnc4N)nccc3cn2)cc1 [Ex 556, 5-((2-amino-5-fluoropyridin-3-yl)ethynyl)-N-(4-(methylsulfonyl)phenyl)-2,6-naphthyridin-3-amine]"
